In patent US4160095A, “7,8-Didehydro-PGI1 amides” (The Upjohn Company, priority 1978, dated 1979):

Test system: endoperoxide cyclooxygenase (PG synthetase)
Experiment: Inhibition of oxygen uptake in the conversion of unsaturated fatty acid to prostaglandin endoperoxides (cyclooxygenase / PG synthetase inhibition, standard in vitro laboratory test)
Type: biochemical
Text: The novel prostacyclin analogs disclosed herein are all inhibitors of endoperoxide cyclooxygenase, an enzyme which converts unsaturated fatty acids (e.g., arachadonic acid) to prostaglandin endoperoxide intermediate (e.g., PGH2). The inhibition of this enzyme (also known as PG synthetase) is established as a standard in vitro laboratory test which measures oxygen uptake in the conversion of the unsaturated fatty acid to the endoperoxides, e.g., [drawing 22]
The efficacy of the novel prostacyclin analogs herein as inhibitors of cyclooxygenase (PG synthetase) is indicated in the following comparison between 2-(acetylozy)benzoic acid (aspirin) and 7,8-didehydro-6β-PGI1, methyl ester:
For further description of PG synthetase inhibition, see Vane, Nature New Biology, 231-232 (1971) and Takeguchi, et al., Prostaglandins 2:169 (1972).

Compound | Percent inhibition of Oxygen Uptake (Concentration 5 × 10^-4 M) | Percent inhibition of Oxygen Uptake (Concentration 5 × 10^-5 M, result in words)
CC(=O)Oc1ccccc1C(=O)O [2-(Acetyloxy)-benzoic acid, 2-(acetyloxy)benzoic acid] | 100% | Inactive
CCCCC[C@H](O)/C=C/[C@@H]1C2=C[C@H](CCCCC(=O)OC)O[C@H]2C[C@H]1O [7,8-Didehydro-6β-PGI methyl ester, 7,8-didehydro-6β-PGI1, methyl ester] | 46% | 
